The series can be described thus: gradient 5% acetonitrile 3 min, to 50% in 2 min, to 85% in 15 min, held 3 min, 100 µL/min. Particulars: column: Zorbax Extend-C18 2.1 x 50 mm; eluents: water / acetonitrile, 0.1% formic acid. An outline of the steps:
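Retention time was recorded from adduct peaks, which were picked computationally and each inspected manually. Pure standards ran in mixtures of ~100 molecules on HPLC coupled to a quadrupole time-of-flight mass spectrometer, in positive and negative ionization mode, through a Zorbax Extend-C18 column (2.1 × 50 mm, 1.8 μm) at 100 μL/min. Eluents were water and acetonitrile, each with 0.1% formic acid.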
In turn, `O=C(Cn1cc(C(=O)c2ccccc2)c(=O)c2cc(F)ccc21)Nc1ccc2c(c1)OCO2` yielded an RP-LC retention time of 836 s.
For `COc1cccc(NC(=O)Cn2cnc(-c3noc(C4CC4)n3)c2)c1` the value was 725 s; for `CC1CCN(S(=O)(=O)N2CCC(C(=O)N3CCCC(Cc4nncn4CC4CC4)C3)CC2)CC1` (centres undefined), 678 s.
For `CC(C)CN1CCN(C(=O)c2ccc(-c3cccs3)nc2)CC1` the value was 602 s; for `CCN1C(=O)c2cccnc2Sc2cc(NC(=O)c3ccccc3C(F)(F)F)ccc21`, 840 s; for `O=C(NCc1ccc(F)cc1)N1CCc2nc[nH]c2C1`, 574 s.
Take `O=C(CC1CCN(S(=O)(=O)c2ccc(Cl)s2)CC1)N1CCN(c2ccccn2)CC1`: the RP-LC retention time came to 672 s.
For the molecule `O=C(NCc1ccc(F)cc1)N1CCCC1c1nc(-c2cccc(F)c2)no1` (centres undefined), the RP-LC retention time was determined as 946 s.
For `Cc1cc(C(=O)Nc2ccc3c(c2)OCO3)c2c(C)nn(-c3cccc(F)c3)c2n1` the value was 1170 s; for `CCOc1ccc(-c2nc3ncccn3c2NC2CCCCC2)cc1`, 808 s; for `O=C(Cn1cc(S(=O)(=O)N2CCOCC2)ccc1=O)N1CCCc2ccccc21`, 750 s.
In turn, `CN(C)c1cccc(C(=O)NC2CCN(c3ccccc3)C2=O)c1` (centres undefined) came in with an RP-LC retention time of 667 s.
Under `Cc1ccccc1S(=O)(=O)N1[C@H]2CC[C@@H]1c1cnc(-c3ccc(F)cc3)nc1C2` stands 1210 s; under `N#Cc1ccc(C(=O)NC(Cc2ccccc2)c2nnc(N3CCCC3)o2)cc1` (centres undefined), 778 s.
Under `O=C(Nc1ccc2c(c1)OCCO2)C1CCN(C(=O)c2ccc(-c3noc(C4CC4)n3)cc2)CC1` stands 828 s; under `O=C(NC1CCN(c2nnc3ccc(Cl)cn23)CC1)c1ccc(C(F)(F)F)s1`, 837 s; under `COC(=O)c1ccc(NC(=O)N2CCC(n3cnc4ccc(Cl)cc4c3=O)CC2)cc1`, 830 s.
Consider `O=c1c2sccc2n(Cc2nc(-c3ccc(F)cc3)no2)c(=O)n1-c1cccc(F)c1`, for which the RP-LC retention time was 970 s.
For `CCCOc1ccc(C(=O)Nc2nnc(C3CC(=O)N(c4ccccc4)C3)o2)cc1` (centres undefined) the value was 800 s; for `O=C(Cn1ccn2nc(-c3ccccc3)c(CO)c2c1=O)Nc1ccccc1`, 781 s; for `c1cnc(N2CCN(Cc3ccc4c(c3)OCO4)CC2)nc1`, 432 s.
Under `CCNc1nc(C)cc(N2CCN(S(=O)(=O)c3cccc(Cl)c3)CC2)n1` stands 725 s; under `COc1ccccc1NC(=O)N1CCC2(CC1)NC(=O)c1cc(F)ccc1N2C`, 756 s.
Under `CC1(C(=O)NCc2ccccc2)CCCN(S(=O)(=O)c2ccccc2)C1` (centres undefined) stands 883 s.
In the case of `CCOc1cc(CN2CCn3c(nn(CC4CC4)c3=O)C2)ccc1O`, the RP-LC retention time was 606 s.
Under `COC(=O)c1c(NCc2c(C)noc2C)c2ccccc2[nH]c1=O` stands 661 s.
In turn, `Nc1ccccc1NC(=O)c1ccc(CNc2nccc(-c3cccnc3)n2)cc1` yielded an RP-LC retention time of 664 s.
Under `Cc1ccc(-c2csc(NC(=O)c3ccccc3Br)n2)c(C)c1` stands 1150 s.
As to `CCn1cc(CCNS(=O)(=O)Cc2ccc(F)cc2Cl)c2cccnc21`, the RP-LC retention time worked out at 812 s.
For `Cc1nc(C)c(C(=O)Nc2nc(-c3ccc(Br)cc3)c(C)s2)s1`, the RP-LC retention time was 1100 s.
In turn, `CCn1cc(-c2nc(CC(=O)NCc3ccc(C)cc3)cs2)c2cccnc21` gave an RP-LC retention time of 912 s.
Under `COc1ccc(CCN(C)CCc2ccc(OC)c(OC)c2)cc1OC` stands 668 s; under `Cc1sc(-c2noc(C(C)C)n2)cc1S(=O)(=O)N1CCC(C(=O)NCc2cccs2)CC1`, 1030 s.
As for `Cc1ccc(Nc2c(-c3ccc([N+](=O)[O-])cc3)nc3cc(C)ccn23)cc1`, the RP-LC retention time worked out at 790 s.
Regarding `Clc1ccccc1-c1nnc(-c2ccccc2Cl)o1`, the RP-LC retention time was 1080 s.
In the case of `COc1ccc(S(=O)(=O)N2CCC(CCOc3ccccc3F)C2)cc1` (centres undefined), the RP-LC retention time is 1060 s.
For `Cn1c(N2CCCC(C(=O)NC3CCN(Cc4ccccc4)CC3)C2)cc(=O)n(C)c1=O` (centres undefined) the value was 576 s; for `CN1C(=O)COc2cc(-c3noc(C(=O)NCCCN4CCCC4)n3)ccc21`, 604 s.
Under `O=C(Nc1ccc2c(c1)CCCN2C(=O)C1CC1)c1cc(Br)ccc1Cl` stands 879 s; under `Cc1ccc(C)c(Sc2cc(N3CCC(C(=O)N4CCC(C(N)=O)CC4)CC3)ncn2)c1`, 652 s; under `O=C(NCc1ccccc1Cl)C1CCCN(S(=O)(=O)c2c[nH]c(C(=O)N3CCCC3)c2)C1` (centres undefined), 790 s.
Under `CCOc1cc(=O)n2c(c1C(=O)N1CCOCC1)CCCCC2` stands 601 s; under `Cc1ccc(-c2noc(Cn3ncn4nc(-c5ccc(Br)cc5)cc4c3=O)n2)cc1`, 1280 s.
`Cn1nc(C(=O)Nc2ccccc2)c2c1CCN(C(=O)Nc1ccccc1Br)C2` came in with an RP-LC retention time of 903 s.
Under `O=C(COc1ccc(C2=NN(C(=O)c3cccs3)C(c3ccccc3)C2)cc1)NCCO` (centres undefined) stands 695 s; under `COc1cc(OC)c(NC(=O)c2ncoc2-c2ccc(OC)c(OC)c2)cc1Cl`, 1140 s; under `CC(C)S(=O)(=O)c1ccc(CC(=O)N2CC(c3nc4ccccc4[nH]3)C2)cc1`, 562 s.
Under `COc1ccccc1N1CCN(CCCCN2C(=O)c3ccccc3C2=O)CC1` stands 751 s; under `CCN1CCN(CCCNC(=O)C2CCCN(C(=O)c3[nH]c(C)c(C(=O)OC(C)C)c3C)C2)CC1` (centres undefined), 579 s; under `Cc1c(Cl)cccc1-n1ccn2cc(-c3ccc(F)cc3)nc2c1=O`, 896 s.
`COc1ccc(OCC(=O)N2CCN(c3cc(C)n4c(C)nnc4n3)CC2)cc1`: the RP-LC retention time amounted to 599 s.
For `COc1ccc(C(=O)NC2CCN(C(=O)c3cc(-c4ccc(OC)cc4)n[nH]3)CC2)cc1` the value was 729 s; for `Cc1nc2c(NC(=O)c3ccc(Cl)cc3)cccn2n1`, 835 s.
For `CCN1CCN(C(=O)Cn2nc(C)c3sc(-c4ccccc4)nc3c2=O)CC1` the value was 604 s; for `Cn1c(=O)n(C)c2cc(CNc3ccc(Cl)cc3)ccc21`, 892 s.
For `CCN(CC)CCNC(=O)CCc1nc2c(C)nn(-c3ccccc3)c2n(C)c1=O` the value was 585 s.
As to `CCOC(=O)c1[nH]c(C)c(CCC(=O)Nc2cc(OC)cc(OC)c2)c1C`, the RP-LC retention time was 880 s.
Under `Cc1cc(=O)n(CC(=O)Nc2ccc(F)c(F)c2)c(N)n1` stands 598 s; under `Cc1nnc(-c2cn(CC(=O)Nc3ccccc3F)c3ccccc23)o1`, 799 s.
Under `CCOC(=O)C1CCN(c2cc3c(cc2NC(=O)CC)n(C)c(=O)c(=O)n3C)CC1` stands 724 s; under `COc1ccc(NC(=O)c2cc3c(=O)n(CC(C)C)c4ccccc4n3n2)c(OC)c1`, 1180 s.
On to `O=C(c1ccc(Br)o1)N1C[C@@H](CO)[C@H](c2ccncc2)C1`, for which the RP-LC retention time amounted to 515 s.
As for `Cc1cc(Cl)ccc1OCc1nc(-c2ccc3c(c2)ncn3CCC(=O)N2CCCCC2)no1`, the RP-LC retention time was 956 s.
For `CCN1CCN(C(=O)C2CCN(S(=O)(=O)c3cc(-c4noc(C)n4)cs3)CC2)CC1` the value was 615 s.
Under `Cc1cccc(NC(=O)c2ncn3c2C(=O)N(C2CC2)C(C)(C(=O)NC2CCCC2)C3)c1C` (centres undefined) stands 842 s.
In turn, `Cc1ccc(C(=O)N2CC(n3cc(COc4ccc(F)cc4)nn3)C2)c(=O)[nH]1` had an RP-LC retention time of 655 s.
Under `COc1ccc(OC)c(NC(=O)c2ccc(S(=O)(=O)NC3CC3)cc2)c1` stands 778 s; under `Cc1cc(Cl)ccc1NC(=O)c1cc(C(C)C)on1`, 1090 s; under `CCCNC(=O)c1nnn(Cc2ccc(Cl)cc2)c1-n1cccc1`, 980 s.
`Cc1cccc(C)c1-n1ccn(Cc2nc(-c3ccccc3)no2)c(=O)c1=O` displayed an RP-LC retention time of 865 s.
Under `Cc1ccc(-c2ccc(CNc3ncn[nH]3)o2)cc1Cl` stands 731 s.
On to `O=S(=O)(NC1CCCCCC1)c1ccc(-c2cc(C(F)(F)F)on2)o1`, for which the RP-LC retention time stood at 1170 s.
For `Clc1cccc(-c2ccc(CNCCCn3ccnc3)o2)c1`, the RP-LC retention time stood at 588 s.
Under `Cc1ccc(C)c(C(=O)Nc2cccn3c(C)nnc23)c1` stands 695 s; under `CCOCc1nc2c(N)nc3ccccc3c2n1CC(C)(C)O`, 662 s.
Molecule `COc1ccc(S(=O)(=O)N2CC=C(c3cn(C(C)C)c4ncccc34)CC2)cc1` displayed an RP-LC retention time of 1070 s.
For the molecule `CCS(=O)(=O)N1C[C@@H](COc2ccncc2)[C@H](c2ccccn2)C1`, the RP-LC retention time is 512 s.
`Cc1ccccc1-c1cn2ccn(-c3ccc(Cl)cc3)c(=O)c2n1` gave an RP-LC retention time of 883 s.
Take `O=C(Nc1nccs1)c1cn(Cc2ccc(F)cc2)cc2c(=O)n(-c3ccccc3)nc1-2`: the RP-LC retention time was 957 s.

(Values after the METLIN SMRT retention time set (Domingo-Almenara et al. 2019).)
